Experimental data published in PubChem BioAssay AID1963864 (Molecular Pharmacology Branch, DTP, NCI, 2024).
pIC50: −log10 of the molar value.

System: KRAS PDC multicell spheroid viability
Test: Anticancer human tumor 521955-158-R6-J3-PDC patient-derived pancreatic carcinoma cell line growth inhibition [KRAS2]
Details: for pIC50: curve of first compound; for viability, T/C: stronger effect = lower value
Text: Multicellular complex tumor spheroid response to RAS pathway inhibitors in combination with a targeted agents in patient-derived cell lines with oncogenic KRAS variants from multiple cancer types
A high-throughput screen of multi-cell type tumor spheroids was designed to identify active combinations of targeted small molecules and KRAS pathway inhibitors. Complex spheroids include a stromal component modeled by human endothelial cells (HUVEC) and fibroblasts modeled by human mesenchymal stem cells (MSCs). The concentration ranges selected for each drug and investigational agent were based upon clinically achievable concentrations if the clinical Cmax of the agent was known.
Compounds. The drugs and investigational agents: BI-3406 (NSC825286), BAY-293 (NSC824723), batoprotafib (TNO155; NSC825523), sotorasib (AMG 510; NSC818433), MRTX1257 (NSC819558), elimusertib (BAY 1895344; NSC800525), molibresib (GSK525762; NSC774829), temuterkib (LY3214996; NSC803410), venetoclax (NSC766270), alisertib (NSC759677), olaparib (NSC753686), talazoparib (NSC767125), erdafitinib (NSC781556), ipatasertib (NSC767898), cabozantinib (NSC761068), nintedanib (NSC756659), abemaciclib (NSC768073), docetaxel (NSC628503), trametinib (NSC758246), and sapanisertib (NSC764658) were obtained from the National Cancer Institute (NCI) Developmental Therapeutics Program Chemical Repository. The FDA-approved anticancer drug set is available from the Developmental Therapeutics Program. […] The stock solutions were prepared in dimethyl sulfoxide (DMSO, Sigma-Aldrich, St. Louis, MO, cat. D2650) at 800-fold the tested concentration and stored at -70 degrees C prior to their use. All drugs and investigational agents were tested over a range starting from a high concentration at or near the clinical Cmax and decreasing in half-log increments. If the clinical Cmax for an agent had not been determined, the highest concentration tested was 10 microM.
Cell Culture. All cells were maintained in an incubator at 37 degrees C and 5% CO2 with 95% humidity. The PDC lines were cultured according to standard operating procedures established by the NCI PDMR (https://pdmr.cancer.gov/sops/default.htm). Briefly, all PDCs were thawed and cultured in Matrigel-coated flasks prepared with a working solution of 1X Ham's F-12 nutrient mix, without supplementation (Invitrogen, Waltham, MA, cat. 11765054), 100 U/mL penicillin-streptomycin (Invitrogen, cat. 15140122), and 2.5% Matrigel (Corning Inc., Corning, NY, cat. 354248) for the first three passages. All PDCs were cultured in complete DMEM/F-12 media containing advanced DMEM/F-12 (Invitrogen, cat. 12634028), 4.9% defined fetal bovine serum, heat inactivated (HyClone Laboratories Inc., Logan, UT, cat. SH30070.03HI), 389 ng/mL hydrocortisone (Sigma-Aldrich, cat. H4001), 9.7 ng/mL human EGF recombinant protein (Invitrogen, cat. PHG0313), 23.4 microg/mL adenine (Sigma-Aldrich, cat. A2786), 97.3 U/mL penicillin-streptomycin (Invitrogen, cat. 15140122), 1.9 mM L-glutamine (Invitrogen, cat. 25030081), and 9.7 microM Y-27632 dihydrochloride (Tocris Bioscience, Bristol, United Kingdom, cat. 1254). The PDCs were cultured in complete DMEM/F12 media without 9.7 microM Y-27632 dihydrochloride for at least two passages prior to the screen. The established cell line HOP-62 was cultured in RPMI 1640 medium, HEPES (Invitrogen, cat. 22400105) with 10% defined fetal bovine serum (HyClone Laboratories Inc., cat. SH30070.03) and 2 mM L-glutamine (Invitrogen, cat. 25030081). The pooled donor HUVEC were cultured in endothelial cell growth medium 2 (PromoCell, Heidelberg, Germany, cat. C-22011) and the hMSC were cultured in mesenchymal stem cell growth medium 2 (PromoCell, cat. C-28009). For all experiments, HUVEC and hMSC were used at passages </=5, while the malignant cell lines were used at passages </=15. […]

[1] = second compound 0.1 µM, first compound 0.0316 µM
[2] = second compound 0.1 µM, first compound 0.1 µM
[3] = second compound 0.1 µM, first compound 0.316 µM
[4] = second compound 0.1 µM, first compound 1 µM
[5] = second compound 0.1 µM, first compound 3.16 µM
[6] = second compound 0.1 µM, first compound 10 µM
[7] = second compound 0.316 µM, first compound 0.0316 µM
[8] = second compound 0.316 µM, first compound 0.1 µM
[9] = second compound 0.316 µM, first compound 0.316 µM
[10] = second compound 0.316 µM, first compound 1 µM
[11] = second compound 0.316 µM, first compound 3.16 µM
[12] = second compound 0.316 µM, first compound 10 µM
[13] = second compound 1 µM, first compound 0.0316 µM
[14] = second compound 1 µM, first compound 0.1 µM
[15] = second compound 1 µM, first compound 0.316 µM
[16] = second compound 1 µM, first compound 1 µM
[17] = second compound 1 µM, first compound 3.16 µM
[18] = second compound 1 µM, first compound 10 µM
[19] = second compound 3.16 µM, first compound 0.0316 µM
[20] = second compound 3.16 µM, first compound 0.1 µM
[21] = second compound 3.16 µM, first compound 0.316 µM
[22] = second compound 3.16 µM, first compound 1 µM
[23] = second compound 3.16 µM, first compound 3.16 µM
[24] = second compound 3.16 µM, first compound 10 µM
[25] = second compound 10 µM, first compound 0.0316 µM
[26] = second compound 10 µM, first compound 0.1 µM
[27] = second compound 10 µM, first compound 0.316 µM
[28] = second compound 10 µM, first compound 1 µM
[29] = second compound 10 µM, first compound 3.16 µM
[30] = second compound 10 µM, first compound 10 µM
[31] = second compound 0.1 µM, first compound 0.00316 µM
[32] = second compound 0.1 µM, first compound 0.01 µM
[33] = second compound 0.316 µM, first compound 0.00316 µM
[34] = second compound 0.316 µM, first compound 0.01 µM
[35] = second compound 1 µM, first compound 0.00316 µM
[36] = second compound 1 µM, first compound 0.01 µM
[37] = second compound 3.16 µM, first compound 0.00316 µM
[38] = second compound 3.16 µM, first compound 0.01 µM
[39] = second compound 10 µM, first compound 0.00316 µM
[40] = second compound 10 µM, first compound 0.01 µM
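Further: drug exposure lasted seven days.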
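Wherever viability, T/C is given: 100% = DMSO vehicle wells and lower means fewer viable cells.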

Row | SMILES | pIC50 (second compound 0.1 µM) | pIC50 (second compound 0.316 µM) | pIC50 (second compound 1 µM) | pIC50 (second compound 3.16 µM) | pIC50 (second compound 10 µM) | viability, T/C [1] [%] | viability, T/C [2] [%] | viability, T/C [3] [%] | viability, T/C [4] [%] | viability, T/C [7] [%] | viability, T/C [8] [%] | viability, T/C [9] [%] | viability, T/C [10] [%] | viability, T/C [13] [%] | viability, T/C [14] [%] | viability, T/C [15] [%] | viability, T/C [19] [%] | viability, T/C [20] [%] | viability, T/C [25] [%] | viability, T/C [26] [%] | further results
1 | CC(C)NCC(C(=O)N1CCN(c2ncnc3c2C(C)CC3O)CC1)c1ccc(Cl)cc1 (stereo not given) + C=CC(=O)N1CCN(c2nc(=O)n(-c3c(C)ccnc3C(C)C)c3nc(-c4c(O)cccc4F)c(F)cc23)C(C)C1 | < 5.00 | < 5.00 | < 5.00 | < 5.00 | 6.17 | 90.8 | 90.4 | 74.5 | 76.2 | 94.4 | 89 | 72.5 | 81.3 | 93.5 | 83.4 | 75.8 | 85.7 | 72 | 75.3 | 63.2 | viability, T/C [5]: 79.5%; viability, T/C [6]: 65.7%; viability, T/C [11]: 79.8%; viability, T/C [12]: 58.6%; viability, T/C [16]: 69.7%; viability, T/C [17]: 66.9%; viability, T/C [18]: 65.5%; viability, T/C [21]: 66.5%; viability, T/C [22]: 64.9%; viability, T/C [23]: 57.4%; viability, T/C [24]: 57.4%; viability, T/C [27]: 54.6%; viability, T/C [28]: 43.3%; viability, T/C [29]: 50.3%; viability, T/C [30]: 43.7%
2 | CC1(C)CCC(CN2CCN(c3ccc(C(=O)NS(=O)(=O)c4ccc(NCC5CCOCC5)c([N+](=O)[O-])c4)c(Oc4cnc5[nH]ccc5c4)c3)CC2)=C(c2ccc(Cl)cc2)C1 + C=CC(=O)N1CCN(c2nc(=O)n(-c3c(C)ccnc3C(C)C)c3nc(-c4c(O)cccc4F)c(F)cc23)C(C)C1 | 5.23 | 5.13 | 5.32 | 5.19 | 5.53 | 89.3 | 98.8 | 97.1 | 93.2 | 113 | 112 | 101 | 102 | 111 | 104 | 106 | 91.9 | 93.5 | 89.2 | 104 | viability, T/C [5]: 72.2%; viability, T/C [6]: 31.6%; viability, T/C [11]: 77.5%; viability, T/C [12]: 39.5%; viability, T/C [16]: 95.8%; viability, T/C [17]: 65.4%; viability, T/C [18]: 23.4%; viability, T/C [21]: 95.2%; viability, T/C [22]: 92.1%; viability, T/C [23]: 67.2%; viability, T/C [24]: 39.6%; viability, T/C [27]: 88.7%; viability, T/C [28]: 73.5%; viability, T/C [29]: 49.8%; viability, T/C [30]: 25.7%
3 | CCN1CCN(Cc2ccc(Nc3ncc(F)c(-c4cc(F)c5nc(C)n(C(C)C)c5c4)n3)nc2)CC1 + C=CC(=O)N1CCN(c2nc(=O)n(-c3c(C)ccnc3C(C)C)c3nc(-c4c(O)cccc4F)c(F)cc23)C(C)C1 | < 6.00 | < 6.00 | < 6.00 | < 6.00 | < 6.00 | 86.1 | 74.2 | 83.6 | 97.6 | 78.7 | 86 | 88.2 | 88.5 | 111 | 94.3 | 85.6 | 101 | 90.3 | 75.3 | 70.4 | viability, T/C [31]: 102%; viability, T/C [32]: 88.8%; viability, T/C [33]: 95.8%; viability, T/C [34]: 90.6%; viability, T/C [35]: 111%; viability, T/C [36]: 91.9%; viability, T/C [16]: 125%; viability, T/C [37]: 87.6%; viability, T/C [38]: 89.4%; viability, T/C [21]: 109%; viability, T/C [22]: 114%; viability, T/C [39]: 63.2%; viability, T/C [40]: 73.2%; viability, T/C [27]: 85.5%; viability, T/C [28]: 114%
4 | Cn1ncnc1[C@H]1c2n[nH]c(=O)c3cc(F)cc(c23)N[C@@H]1c1ccc(F)cc1 + C=CC(=O)N1CCN(c2nc(=O)n(-c3c(C)ccnc3C(C)C)c3nc(-c4c(O)cccc4F)c(F)cc23)C(C)C1 | < 7.00 | < 7.00 | < 7.00 | < 7.00 | < 7.00 | 96.5 | 95 | – | – | 105 | 108 | – | – | 110 | 118 | – | 99.7 | 96.4 | 82.5 | 78 | viability, T/C (second compound 0.1 µM, first compound 0.000316 µM): 106%; viability, T/C (second compound 0.1 µM, first compound 0.001 µM): 109%; viability, T/C [31]: 101%; viability, T/C [32]: 107%; viability, T/C (second compound 0.316 µM, first compound 0.000316 µM): 110%; viability, T/C (second compound 0.316 µM, first compound 0.001 µM): 102%; viability, T/C [33]: 116%; viability, T/C [34]: 94.9%; viability, T/C (second compound 1 µM, first compound 0.000316 µM): 114%; viability, T/C (second compound 1 µM, first compound 0.001 µM): 109%; viability, T/C [35]: 118%; viability, T/C [36]: 97.5%; viability, T/C (second compound 3.16 µM, first compound 0.000316 µM): 102%; viability, T/C (second compound 3.16 µM, first compound 0.001 µM): 104%; viability, T/C [37]: 101%; viability, T/C [38]: 100%; viability, T/C (second compound 10 µM, first compound 0.000316 µM): 81.8%; viability, T/C (second compound 10 µM, first compound 0.001 µM): 80.2%; viability, T/C [39]: 83.4%; viability, T/C [40]: 83.2%
